Reference: patent US10662187B2, “Bruton's tyrosine kinase inhibitors” (Zibo Biopolar Changsheng Pharmaceutical Co. Ltd., priority 2016, dated 2020)
pIC50: −log10 of the molar value. Where two headings read alike, the source gives them in different places.

Biological target: BTK (Homo sapiens (Human), UniProt Q06187)
Assay: Btk kinase assay (HTRF)
Type: biochemical
Experimental: Btk Kinase Assay and Other Kinases Assay Btk kinase activity was determined using a homogenous time resolved fluorescence (HTRF) methodology. Measurements were performed in a reaction volume of 15 μL using 384-well assay plates. Kinase enzyme, inhibitor, ATP and 1 μM peptide substrate were incubated in a reaction buffer compose of Hepes 50 mM (pH7.0), NaN3 0.02%, BSA 0.01%, Orthocanadate 0.1 mM. […] For each compound, enzyme activity as measured at various concentrations of compound, Negative control reactions were performed in the absence of inhibitor in two replicates and eight no enzyme controls were used to determine baseline fluorescence levels.

[1] = [ATP]=80 μM, BTK=3.4 nM, read-out: BTK Inhibition

BTK, sequence (Q06187 whole entry, species assumed): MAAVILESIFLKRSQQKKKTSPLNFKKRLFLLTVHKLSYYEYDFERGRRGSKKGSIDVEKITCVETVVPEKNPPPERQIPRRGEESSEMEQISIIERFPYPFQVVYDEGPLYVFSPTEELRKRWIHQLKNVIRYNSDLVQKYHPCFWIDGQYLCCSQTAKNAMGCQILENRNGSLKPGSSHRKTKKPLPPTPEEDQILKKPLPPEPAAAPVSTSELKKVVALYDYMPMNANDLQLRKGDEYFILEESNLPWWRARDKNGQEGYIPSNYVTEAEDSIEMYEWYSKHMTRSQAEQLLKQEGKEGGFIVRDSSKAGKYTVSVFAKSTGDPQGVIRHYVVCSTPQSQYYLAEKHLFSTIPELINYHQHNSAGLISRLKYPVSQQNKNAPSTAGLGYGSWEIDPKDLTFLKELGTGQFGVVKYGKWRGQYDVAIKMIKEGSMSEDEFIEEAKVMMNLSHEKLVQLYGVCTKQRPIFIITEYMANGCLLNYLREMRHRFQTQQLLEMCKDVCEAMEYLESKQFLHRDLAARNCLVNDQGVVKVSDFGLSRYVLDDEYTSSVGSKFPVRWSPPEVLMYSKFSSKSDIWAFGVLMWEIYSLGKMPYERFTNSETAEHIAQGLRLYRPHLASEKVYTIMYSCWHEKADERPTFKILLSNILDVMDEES

SMILES | pIC50 [1] | pIC50
C=CC(=O)N1CC[C@@H](n2nc(-c3ccc(N4CCN(C)CC4)cc3)c3cnccc32)C1 [Compound 112, (R)-1-(3-(3-(4-(4-methylpiperazin-1-yl)phenyl)-1H-pyrazolo [4,3-c]pyridin-1-yl)pyrrolidin-1-yl)prop-2-en-1-one] | 6.00 to 7.00 | –
CC#CC(=O)N1CCC[C@@H](n2nc(-c3ccc(C(=O)Nc4ccccn4)cc3)c3cnccc32)C1 [Compound 105, (R)-4-(1-(1-(but-2-ynoyl)piperidin-3-yl)-1H-pyrazolo [4,3-c]pyridin-3-yl)-N-(pyridin-2-yl)benzamide] | 6.00 to 7.00 | –
COc1cccc(Oc2ccc(-c3nn([C@@H]4CCCN(C(=O)C5CC6(C5)CN(S(=O)(=O)c5ccc(C)cc5)C6)C4)c4c(OC)cncc34)cc2)c1F [Compound 74, (R)-(3-(3-(4-(2-fluoro-3-methoxyphenoxy)phenyl)-7-methoxy-1H-pyrazolo [4,3-c]pyridin-1-yl)piperidin-1-yl)(2-tosyl-2-azaspiro[3.3]heptan-6-yl)methanone] | 6.00 to 7.00 | –
C=CC(=O)N1CCC[C@@H](n2nc(-c3ccc(N4CCN(S(C)(=O)=O)CC4)cc3)c3cnccc32)C1 [Compound 115, (R)-1-(3-(3-(4-(4-(methylsulfonyl)piperazin-1-yl)phenyl)-1H-pyrazolo[4,3-c]pyridin-1-yl)piperidin-1-yl)prop-2-en-1-one] | 6.00 to 7.00 | –
O=C(Nc1ccc(-c2nn(C3CCC(C(=O)O)CC3)c3ccncc23)cc1)c1ccccc1 (stereo not drawn) [Compound 123, 4-(3-(4-benzamidophenyl)-1H-pyrazolo[4,3-c]pyridin-1-yl)cyclohexanecarboxylic acid] | < 5.00 | –
C=CC(=O)N1CCC[C@@H](n2nc(Nc3ccc(N4CCN(C)CC4)cc3)c3cnccc32)C1 [Compound 114, (R)-1-(3-(3-((4-(4-methylpiperazin-1-yl)phenyl)amino)-1H-pyrazolo[4,3-c]pyridin-1-yl)piperidin-1-yl)prop-2-en-1-one] | 5.00 to 6.00 | –
COc1cccc(Oc2ccc(-c3nn([C@@H]4CCCC(C(=O)O)C4)c4c(OC)cncc34)cc2)c1F (stereo partly drawn) [Compound 121, (3R)-3-(3-(4-(2-fluoro-3-methoxyphenoxy)phenyl)-7-methoxy-1H-pyrazolo[4,3-c]pyridin-1-yl)cyclohexanecarboxylic acid] | – | 7.00 to 8.00
C=CC(=O)N1CCC[C@@H](n2nc(-c3ccc(Oc4cccc(C)c4F)cc3)c3cnccc32)C1 [Compound 48, (R)-1-(3-(3-(4-(2-fluoro-3-methylphenoxy)phenyl)-1H-pyrazolo[4,3-c]pyridin-1-yl)piperidin-1-yl)prop-2-en-1-one] | 7.00 to 8.00 | –
C=CC(=O)N1CCC[C@@H](n2nc(-c3ccc(Oc4cccc(OC)c4C)cc3)c3cnccc32)C1 [Compound 57, (R)-1-(3-(3-(4-(3-methoxy-2-methylphenoxy)phenyl)-1H-pyrazolo[4,3-c]pyridin-1-yl)piperidin-1-yl)prop-2-en-1-one] | 7.00 to 8.00 | –
C=CC(=O)N1CCC[C@@H](n2nc(-c3ccc(Oc4cccc(OC)c4F)cc3)c3cncc(OCCCC)c32)C1 [Compound 76, (R)-1-(3-(7-butoxy-3-(4-(2-fluoro-3-methoxyphenoxy)phenyl)-1H-pyrazolo[4,3-c]pyridin-1-yl)piperidin-1-yl)prop-2-en-1-one] | > 8.00 | –
C=CC(=O)N1CCC[C@@H](n2nc(-c3ccc(Oc4ccccc4)cc3)c3c(N)cccc32)C1 [Compound 55, (R)-1-(3-(4-amino-3-(4-phenoxyphenyl)-1H-indazol-1-yl)piperidin-1-yl)prop-2-en-1-one] | 7.00 to 8.00 | –
C=CC(=O)N1CC[C@@H](n2nc(-c3ccc(Oc4cccc5c4CCC5)cc3)c3cnccc32)C1 [Compound 31, (R)-1-(3-(3-(4-((2,3-dihydro-1H-inden-4-yl)oxy)phenyl)-1H-pyrazolo[4,3-c]pyridin-1-yl)pyrrolidin-1-yl)prop-2-en-1-one] | 7.00 to 8.00 | –
C=CC(=O)N1CC[C@@H](n2nc(-c3ccc(Oc4ccccc4)cc3)c3c(N)cccc32)C1 [Compound 54, (R)-1-(3-(4-amino-3-(4-phenoxyphenyl)-1H-indazol-1-yl)pyrrolidin-1-yl)prop-2-en-1-one] | 7.00 to 8.00 | –
C=CC(=O)N1CC[C@@H](n2nc(-c3ccc(Oc4cccc5ccccc45)cc3)c3cnccc32)C1 [Compound 7, (R)-1-(3-(3-(4-(naphthalen-1-yloxy)phenyl)-1H-pyrazolo[4,3-c]pyridin-1-yl)pyrrolidin-1-yl)prop-2-en-1-one] | 7.00 to 8.00 | –
C=CC(=O)N1CC[C@@H](n2nc3ccncc3c2-c2ccc(Oc3cccc(F)c3Cl)cc2)C1 [Compound 38, (R)-1-(3-(3-(4-(2-chloro-3-fluorophenoxy)phenyl)-2H-pyrazolo[4,3-c]pyridin-2-yl)pyrrolidin-1-yl)prop-2-en-1-one] | 7.00 to 8.00 | –
C=CC(=O)N1CC[C@@H](n2nc(-c3ccc(Oc4cccc(F)c4C)cc3)c3cnccc32)C1 [Compound 14, (R)-1-(3-(3-(4-(3-fluoro-2-methylphenoxy)phenyl)-1H-pyrazolo[4,3-c]pyridin-1-yl)pyrrolidin-1-yl)prop-2-en-1-one] | 7.00 to 8.00 | –

Continued, in another order:

pIC50 [1] | SMILES | pIC50
7.00 to 8.00 | COc1cccc(Oc2ccc(-c3nn([C@@H]4CCCN(C(=O)C(C)O)C4)c4c(OC)cncc34)cc2)c1F (stereo partly drawn) [Compound 118, 1-((R)-3-(3-(4-(2-fluoro-3-methoxyphenoxy)phenyl)-7-methoxy-1H-pyrazolo[4,3-c]pyridin-1-yl)piperidin-1-yl)-2-hydroxypropan-1-one] | –
7.00 to 8.00 | C=CC(=O)N1CCC[C@@H](n2nc(-c3ccc(Oc4cccc(OC)c4F)cc3)c3cncc(C(F)F)c32)C1 [Compound 72, (R)-1-(3-(7-(difluoromethyl)-3-(4-(2-fluoro-3-methoxyphenoxy)phenyl)-1H-pyrazolo[4,3-c]pyridin-1-yl)piperidin-1-yl)prop-2-en-1-one] | –
7.00 to 8.00 | C=CC(=O)N1CCC[C@@H](n2nc(-c3ccc(NC(=O)c4cccc(C(F)(F)F)c4)cc3)c3cnccc32)C1 [Compound 117, (R)-N-(4-(1-(1-acryloylpiperidin-3-yl)-1H-pyrazolo[4,3-c]pyridin-3-yl)phenyl)-3-(trifluoromethyl)benzamide] | –
> 8.00 | C=CC(=O)N1CC[C@@H](n2nc(-c3ccc(Oc4cccc(C)c4F)cc3)c3cnccc32)C1 [Compound 47, (R)-1-(3-(3-(4-(2-fluoro-3-methylphenoxy)phenyl)-1H-pyrazolo[4,3-c]pyridin-1-yl)pyrrolidin-1-yl)prop-2-en-1-one] | –
> 8.00 | C=CC(=O)N1CC[C@@H](n2nc(-c3ccc(Oc4ccccc4)cc3)c3cncc(F)c32)C1 [Compound 66] | –
7.00 to 8.00 | COc1cccc(Oc2ccc(-c3nn(CC4CCCN4C(=O)/C(C#N)=C/C(C)(C)C)c4c(OC)cncc34)cc2)c1F (stereo not drawn) [Compound 92, (E)-2-(2-((3-(4-(2-fluoro-3-methoxyphenoxy)phenyl)-7-methoxy-1H-pyrazolo[4,3-c]pyridin-1-yl)methyl)pyrrolidine-1-carbonyl)-4,4-dimethylpent-2-enenitrile] | –
7.00 to 8.00 | C=CC(=O)N1CCC[C@H](n2nc(-c3ccc(Oc4cccc(F)c4Cl)cc3)c3cnccc32)C1 [Compound 40, (S)-1-(3-(3-(4-(2-chloro-3-fluorophenoxy)phenyl)-1H-pyrazolo[4,3-c]pyridin-1-yl)piperidin-1-yl)prop-2-en-1-one] | –
7.00 to 8.00 | C=CC(=O)N1CC[C@@H](n2nc(-c3ccc(OCc4ccccc4F)cc3)c3cnccc32)C1 [Compound 100, (R)-1-(3-(3-(4-((2-fluorobenzyl)oxy)phenyl)-1H-pyrazolo[4,3-c]pyridin-1-yl)pyrrolidin-1-yl)prop-2-en-1-one] | –
